The assay concerns the target T1, bovine serum albumin (BSA) (Bos taurus, UniProt P02769).
T1 construct: gene ALB; BSA fraction V
In words: Intrinsic tryptophan fluorescence quenching titration (Stern–Volmer; double-log plot for Kb), pH […], room temperature. The settings on record: read-out: Kb × 10^5 (M^-1) (converted). The assay is classed as binding.

Molecules are shown by their SMILES.

T1 sequence (P02769 25-607): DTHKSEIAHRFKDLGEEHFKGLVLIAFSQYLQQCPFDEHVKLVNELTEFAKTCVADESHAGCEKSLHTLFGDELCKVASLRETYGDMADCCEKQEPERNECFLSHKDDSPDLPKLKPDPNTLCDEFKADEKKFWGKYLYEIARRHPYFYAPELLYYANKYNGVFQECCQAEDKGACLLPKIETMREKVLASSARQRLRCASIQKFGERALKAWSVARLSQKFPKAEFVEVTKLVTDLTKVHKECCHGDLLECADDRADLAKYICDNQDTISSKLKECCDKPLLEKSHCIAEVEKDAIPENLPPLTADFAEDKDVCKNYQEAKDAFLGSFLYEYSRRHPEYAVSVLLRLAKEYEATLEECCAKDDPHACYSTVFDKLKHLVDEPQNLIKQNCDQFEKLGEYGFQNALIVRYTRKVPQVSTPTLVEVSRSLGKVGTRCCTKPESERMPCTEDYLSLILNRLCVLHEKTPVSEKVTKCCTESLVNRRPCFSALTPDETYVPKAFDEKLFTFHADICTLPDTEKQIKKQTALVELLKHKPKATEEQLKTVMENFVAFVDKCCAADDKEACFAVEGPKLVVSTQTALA

With `Cc1ccc(-c2csc(NN=C(COc3cc(C)ccc3C(C)C)c3ccccc3)n2)cc1` [7e, 2-(2-(2-(2-isopropyl-5-methylphenoxy)-1-phenylethylidene)hydrazineyl)-4-(p-tolyl)thiazole], the Kd is 4.42 µM.

For the origin of these results see PMC6804233, “Design and Synthesis of Novel 1,3-Thiazole and 2-Hydrazinyl-1,3-Thiazole Derivatives as Anti-Candida Agents: In Vitro Antifungal Screening, Molecular Docking Study, and Spectroscopic Investigation of their Binding Interaction with Bovine Serum Albumin” (Molecules, 2019).
